Laboratory results as given in the supplement of paper PMC10307832.

Assays:
Experiment in all cases: relative viability (nuclei count vs DMSO), 5 days (fraction); higher = more cells survive
CAL-12T = system: CAL-12T
Method in brief: (§1)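 One day after seeding in 1536-well plates, lung cancer cell lines were dosed by pin tool. Dosing was either single-drug or a fixed anchor-drug dose plus five library-drug doses (not always all listed) in √10 steps. After 5 days, nuclei were stained in one fix-and-stain step and counted on 4× images, and relative viability is the nuclei count of treated wells over that of vehicle wells, given as the median of duplicate plates.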

HCC-78 = system: HCC-78
Method in brief: as §1

COR-L 105 = system: COR-L 105
Method in brief: as §1

NCI-H358 = system: NCI-H358
Method in brief: as §1

ABC-1 = system: ABC-1
Method in brief: as §1

HCC-827 = system: HCC-827
Method in brief: as §1

HCC-366 = system: HCC-366
Method in brief: as §1

LXF-289 = system: LXF-289
Method in brief: as §1

EBC-1 = system: EBC-1
Method in brief: as §1

LU99A = system: LU99A
Method in brief: as §1

NCI-H1734 = system: NCI-H1734
Method in brief: as §1

NCI-H2347 = system: NCI-H2347
Method in brief: as §1

LOU-NH91 = system: LOU-NH91
Method in brief: as §1

NCI-H1793 = system: NCI-H1793
Method in brief: as §1

NCI-H2170 = system: NCI-H2170
Method in brief: as §1

HARA = system: HARA
Method in brief: as §1

NCI-H1915 = system: NCI-H1915
Method in brief: as §1

EKVX = system: EKVX
Method in brief: as §1

UMC-11 = system: UMC-11
Method in brief: as §1

NCI-H1437 = system: NCI-H1437
Method in brief: as §1

## Cc1cn(-c2cc(NC(=O)c3ccc(C)c(Nc4nccc(-c5cccnc5)n4)c3)cc(C(F)(F)F)c2)cn1 [Nilotinib] + CS(=O)(=O)CCNCc1ccc(-c2ccc3ncnc(Nc4ccc(OCc5cccc(F)c5)c(Cl)c4)c3c2)o1 [Lapatinib] (partner 2 µM)
CAL-12T; first compound 0.001 µM
  relative viability: 0.729
CAL-12T; first compound 0.01 µM
  relative viability: 0.748
CAL-12T; first compound 0.03162 µM
  relative viability: 0.839
CAL-12T; first compound 0.1 µM
  relative viability: 0.74
HCC-78; first compound 0.001 µM
  relative viability: 0.889
HCC-78; first compound 0.003162 µM
  relative viability: 0.718
HCC-78; first compound 0.01 µM
  relative viability: 0.779
HCC-78; first compound 0.03162 µM
  relative viability: 0.491
HCC-78; first compound 0.1 µM
  relative viability: 0.571
COR-L 105; first compound 0.001 µM
  relative viability: 0.418
COR-L 105; first compound 0.01 µM
  relative viability: 0.375
COR-L 105; first compound 0.03162 µM
  relative viability: 0.352
COR-L 105; first compound 0.1 µM
  relative viability: 0.286
NCI-H358; first compound 0.001 µM
  relative viability: 0.442
NCI-H358; first compound 0.003162 µM
  relative viability: 0.529
NCI-H358; first compound 0.01 µM
  relative viability: 0.539
NCI-H358; first compound 0.03162 µM
  relative viability: 0.438
NCI-H358; first compound 0.1 µM
  relative viability: 0.325
ABC-1; first compound 0.001 µM
  relative viability: 0.925
ABC-1; first compound 0.003162 µM
  relative viability: 1.09
ABC-1; first compound 0.01 µM
  relative viability: 1.35
ABC-1; first compound 0.03162 µM
  relative viability: 0.955
ABC-1; first compound 0.1 µM
  relative viability: 0.952
HCC-827; first compound 0.001 µM
  relative viability: 0.233
HCC-827; first compound 0.003162 µM
  relative viability: 0.184
HCC-827; first compound 0.01 µM
  relative viability: 0.154
HCC-827; first compound 0.1 µM
  relative viability: 0.184
HCC-366; first compound 0.001 µM
  relative viability: 0.907
HCC-366; first compound 0.003162 µM
  relative viability: 1.38
HCC-366; first compound 0.01 µM
  relative viability: 1.29
HCC-366; first compound 0.03162 µM
  relative viability: 0.984
HCC-366; first compound 0.1 µM
  relative viability: 0.191
LXF-289; first compound 0.001 µM
  relative viability: 0.839
LXF-289; first compound 0.003162 µM
  relative viability: 1.05
LXF-289; first compound 0.01 µM
  relative viability: 0.927
LXF-289; first compound 0.03162 µM
  relative viability: 0.941
LXF-289; first compound 0.1 µM
  relative viability: 0.63
EBC-1; first compound 0.001 µM
  relative viability: 0.208
EBC-1; first compound 0.003162 µM
  relative viability: 0.187
EBC-1; first compound 0.01 µM
  relative viability: 0.179
EBC-1; first compound 0.03162 µM
  relative viability: 0.186
EBC-1; first compound 0.1 µM
  relative viability: 0.162
LU99A; first compound 0.001 µM
  relative viability: 0.954
LU99A; first compound 0.003162 µM
  relative viability: 0.924
LU99A; first compound 0.01 µM
  relative viability: 0.921
LU99A; first compound 0.03162 µM
  relative viability: 0.775
LU99A; first compound 0.1 µM
  relative viability: 0.153
NCI-H1734; first compound 0.001 µM
  relative viability: 1
NCI-H1734; first compound 0.003162 µM
  relative viability: 1.14
NCI-H1734; first compound 0.01 µM
  relative viability: 1.27
NCI-H1734; first compound 0.03162 µM
  relative viability: 0.808
NCI-H1734; first compound 0.1 µM
  relative viability: 0.517
NCI-H2347; first compound 0.001 µM
  relative viability: 0.821
NCI-H2347; first compound 0.003162 µM
  relative viability: 1.01
NCI-H2347; first compound 0.01 µM
  relative viability: 0.823
NCI-H2347; first compound 0.03162 µM
  relative viability: 0.817
NCI-H2347; first compound 0.1 µM
  relative viability: 0.6
LOU-NH91; first compound 0.001 µM
  relative viability: 0.76
LOU-NH91; first compound 0.003162 µM
  relative viability: 0.679
LOU-NH91; first compound 0.01 µM
  relative viability: 0.649
LOU-NH91; first compound 0.03162 µM
  relative viability: 0.761
LOU-NH91; first compound 0.1 µM
  relative viability: 0.747
NCI-H1793; first compound 0.003162 µM
  relative viability: 0.842
NCI-H1793; first compound 0.01 µM
  relative viability: 1.02
NCI-H1793; first compound 0.03162 µM
  relative viability: 0.859
NCI-H1793; first compound 0.1 µM
  relative viability: 0.21
NCI-H2170; first compound 0.001 µM
  relative viability: 0.26
NCI-H2170; first compound 0.003162 µM
  relative viability: 0.285
NCI-H2170; first compound 0.01 µM
  relative viability: 0.272
NCI-H2170; first compound 0.03162 µM
  relative viability: 0.28
NCI-H2170; first compound 0.1 µM
  relative viability: 0.268
HARA; first compound 0.001 µM
  relative viability: 0.685
HARA; first compound 0.003162 µM
  relative viability: 0.777
HARA; first compound 0.01 µM
  relative viability: 0.686
HARA; first compound 0.03162 µM
  relative viability: 0.8
HARA; first compound 0.1 µM
  relative viability: 0.454
NCI-H1915; first compound 0.001 µM
  relative viability: 0.986
NCI-H1915; first compound 0.003162 µM
  relative viability: 1.13
NCI-H1915; first compound 0.01 µM
  relative viability: 1.22
NCI-H1915; first compound 0.03162 µM
  relative viability: 0.98
NCI-H1915; first compound 0.1 µM
  relative viability: 0.517
EKVX; first compound 0.001 µM
  relative viability: 0.211
EKVX; first compound 0.003162 µM
  relative viability: 0.195
EKVX; first compound 0.01 µM
  relative viability: 0.214
EKVX; first compound 0.03162 µM
  relative viability: 0.187
EKVX; first compound 0.1 µM
  relative viability: 0.204
UMC-11; first compound 0.001 µM
  relative viability: 0.995
UMC-11; first compound 0.003162 µM
  relative viability: 1.2
UMC-11; first compound 0.01 µM
  relative viability: 1.27
UMC-11; first compound 0.03162 µM
  relative viability: 0.851
UMC-11; first compound 0.1 µM
  relative viability: 0.255
NCI-H1437; first compound 0.001 µM
  relative viability: 0.687
NCI-H1437; first compound 0.003162 µM
  relative viability: 0.973
NCI-H1437; first compound 0.01 µM
  relative viability: 0.858
NCI-H1437; first compound 0.03162 µM
  relative viability: 0.614
NCI-H1437; first compound 0.1 µM
  relative viability: 0.203
